Assay results reported in patent publication US12297190B2, “Modulators of STING (stimulator of interferon genes)” (PFIZER INC., priority 2019, dated 2025).

Target: R232-STING (Homo sapiens, UniProt Q86WV6, H232R)
Experiment: biochemical

R232-STING, sequence (Q86WV6 155-341 H232R): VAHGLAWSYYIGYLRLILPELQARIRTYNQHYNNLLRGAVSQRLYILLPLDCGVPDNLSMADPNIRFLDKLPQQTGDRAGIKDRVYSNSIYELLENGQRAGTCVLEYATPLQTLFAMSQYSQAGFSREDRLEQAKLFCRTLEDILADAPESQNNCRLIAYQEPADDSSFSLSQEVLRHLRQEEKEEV

| Compound | Ki [µM] |
| --- | --- |
| CCn1nc(C)cc1-c1nnc(-c2cc(C(N)=O)cc3c2cnn3C(C)CN2CCCC2)[nH]1 (centres unmarked) [ZZZ040, 4-[5-(1-ethyl-3-methyl-1H-pyrazol-5-yl)-4H-1,2,4-triazol-3-yl]-1-[1-(pyrrolidin-1-yl)propan-2-yl]-1H-indazole-6-carboxamide] | > 0.99 |
| CCn1nc(C)cc1-c1nnc(-c2cc(C(N)=O)cc3c2cnn3CC[C@H]2CCCCN2C)[nH]1 (racemic) [ZZZ023, 4-[5-(1-ethyl-3-methyl-1H-pyrazol-5-yl)-4H-1,2,4-triazol-3-yl]-1-{2-[(2R)-1-methylpiperidin-2-yl]ethyl}-1H-indazole-6-carboxamide] | > 0.99 |
| CCn1nc(C)c(F)c1-c1nnc(-c2cc(C(N)=O)cn3c(C(=O)O)ncc23)[nH]1 [ZZZ057, 6-carbamoyl-8-[5-(1-ethyl-4-fluoro-3-methyl-1H-pyrazol-5-yl)-4H-1,2,4-triazol-3-yl]imidazo[1,5-a]pyridine-3-carboxylic acid] | > 0.99 |
| CCn1nc(C)cc1-c1n[nH]c(-c2cc(C(N)=O)cc3c2cnn3CCN2C3COCC2C3)n1 [ZZZ090, 4-[3-(1-ethyl-3-methyl-1H-pyrazol-5-yl)-1H-1,2,4-triazol-5-yl]-1-[2-(3-oxa-6-azabicyclo[3.1.1]heptan-6-yl)ethyl]-1H-indazole-6-carboxamide] | > 0.99 |
| CCn1nc(C)cc1-c1nnc(-c2cc(C(N)=O)cc3c2cnn3[C@H]2CCCNC2)[nH]1 (racemic) [ZZZ069, 4-[5-(1-ethyl-3-methyl-1H-pyrazol-5-yl)-4H-1,2,4-triazol-3-yl]-1-[(3S)-piperidin-3-yl]-1H-indazole-6-carboxamide] | > 0.99 |
| CCn1nc(C)cc1-c1n[nH]c(-c2cc(C(N)=O)cc3c2cnn3CCN2CC[C@H](O)C2)n1 (racemic) [ZZZ119, 4-[3-(1-ethyl-3-methyl-1H-pyrazol-5-yl)-1H-1,2,4-triazol-5-yl]-1-{2-[(3S)-3-hydroxypyrrolidin-1-yl]ethyl}-1H-indazole-6-carboxamide] | > 0.99 |
| CCn1nc(C(=O)O)cc1-c1cnc(-c2cc(C(N)=O)cc3c2cnn3C)[nH]1 [ZZZ124, 5-[2-(6-carbamoyl-1-methyl-1H-indazol-4-yl)-1H-imidazol-5-yl]-1-ethyl-1H-pyrazole-3-carboxylic acid] | > 0.09 |
| CCn1nc(C)cc1-c1nnc(-c2cc(C(N)=O)cc3c2cnn3CCCCN(C)C)[nH]1 [ZZZ034, 1-[4-(dimethylamino)butyl]-4-[5-(1-ethyl-3-methyl-1H-pyrazol-5-yl)-4H-1,2,4-triazol-3-yl]-1H-indazole-6-carboxamide] | > 0.99 |
| CCn1nc(CO)cc1-c1nnc(-c2cc(C(N)=O)cc3c2cnn3C)[nH]1 [ZZZ050, 4-{5-[1-ethyl-3-(hydroxymethyl)-1H-pyrazol-5-yl]-4H-1,2,4-triazol-3-yl}-1-methyl-1H-indazole-6-carboxamide] | > 0.99 |
| CCn1nc(C)cc1-c1nnc(-c2cc(C(N)=O)cc3c2cnn3CCOCCN(C)C)[nH]1 [ZZZ021, 1-{2-[2-(dimethylamino)ethoxy]ethyl}-4-[5-(1-ethyl-3-methyl-1H-pyrazol-5-yl)-4H-1,2,4-triazol-3-yl]-1H-indazole-6-carboxamide] | > 0.99 |
| CCn1nc(C)c(F)c1-c1nc(CN)c(-c2nc(C(N)=O)cc3c2cnn3C)o1 [ZZZ045, 4-[4-(aminomethyl)-2-(1-ethyl-4-fluoro-3-methyl-1H-pyrazol-5-yl)-1,3-oxazol-5-yl]-1-methyl-1H-pyrazolo[4,3-c]pyridine-6-carboxamide] | > 0.9 |
| CCn1nc(C)cc1-c1nnc(-c2cc(C(N)=O)cc3c2cnn3[C@H]2C[C@H](NC)C2)[nH]1 [ZZZ066, 4-[5-(1-ethyl-3-methyl-1H-pyrazol-5-yl)-4H-1,2,4-triazol-3-yl]-1-[(1r,3r)-3-(methylamino)cyclobutyl]-1H-indazole-6-carboxamide] | > 0.99 |
| CCn1nc(C)cc1-c1nnc(-c2cc(C(N)=O)cc3c2cnn3CC2CC3(CCNC3)C2)[nH]1 (centres unmarked) [ZZZ070, 1-[(6-azaspiro[3.4]octan-2-yl)methyl]-4-[5-(1-ethyl-3-methyl-1H-pyrazol-5-yl)-4H-1,2,4-triazol-3-yl]-1H-indazole-6-carboxamide] | > 0.99 |
| CCn1nc(C)cc1-c1nnc(-c2cc(C(N)=O)cc3c2cnn3CC[C@@H]2CCN(C)C2)[nH]1 [ZZZ035, 4-[5-(1-ethyl-3-methyl-1H-pyrazol-5-yl)-4H-1,2,4-triazol-3-yl]-1-{2-[(3S)-1-methylpyrrolidin-3-yl]ethyl}-1H-indazole-6-carboxamide] | > 0.99 |
| CCn1nc(C)c(F)c1-c1nc(-c2c(F)c(C(N)=O)cc3c2cnn3C)n(C)n1 [ZZZ130, 4-[3-(1-ethyl-4-fluoro-3-methyl-1H-pyrazol-5-yl)-1-methyl-1H-1,2,4-triazol-5-yl]-5-fluoro-1-methyl-1H-indazole-6-carboxamide] | > 0.99 |
| CCn1nc(C)cc1-c1nnc(-c2cc(C(N)=O)cc3c2cnn3[C@H]2CC[C@@H](NC)CC2)[nH]1 [ZZZ075, 4-[5-(1-ethyl-3-methyl-1H-pyrazol-5-yl)-4H-1,2,4-triazol-3-yl]-1-[(1s,4s)-4-(methylamino)cyclohexyl]-1H-indazole-6-carboxamide] | 0.961 |
| CCn1nc(C)c(F)c1-c1n[nH]c(-c2cc(C(N)=O)cc3c2cnn3CCCNC)n1 [ZZZ054, 4-[3-(1-ethyl-4-fluoro-3-methyl-1H-pyrazol-5-yl)-1H-1,2,4-triazol-5-yl]-1-[3-(methylamino)propyl]-1H-indazole-6-carboxamide] | > 1.89 |
| CCn1nc(C)cc1-c1nnc(-c2cc(C(N)=O)cc3c2cnn3[C@H]2C[C@@H](NC)C2)[nH]1 [ZZZ081, 4-[5-(1-ethyl-3-methyl-1H-pyrazol-5-yl)-4H-1,2,4-triazol-3-yl]-1-[(1s,3s)-3-(methylamino)cyclobutyl]-1H-indazole-6-carboxamide] | > 0.99 |
| CCc1cc(-c2n[nH]c(-c3cc(C(N)=O)cc4c3cnn4C)n2)n(CC)n1 [ZZZ005, 4-[3-(1,3-diethyl-1H-pyrazol-5-yl)-1H-1,2,4-triazol-5-yl]-1-methyl-1H-indazole-6-carboxamide] | > 0.99 |
| CCn1nc(CO)cc1-c1n[nH]c(-c2nc(C(N)=O)cc3[nH]ncc23)n1 [ZZZ046, 4-{3-[1-ethyl-3-(hydroxymethyl)-1H-pyrazol-5-yl]-1H-1,2,4-triazol-5-yl}-1H-pyrazolo[4,3-c]pyridine-6-carboxamide] | > 0.99 |

The remaining compounds from weak to strong by Ki, led by results:

| Ki [µM] | Compound |
| --- | --- |
| 0.905 | CCn1nc(C)cc1-c1n[nH]c(-c2cc(C(N)=O)cc3c2cnn3CCN2CCOC[C@H]2CO)n1 [ZZZ120, 4-[3-(1-ethyl-3-methyl-1H-pyrazol-5-yl)-1H-1,2,4-triazol-5-yl]-1-{2-[(3R)-3-(hydroxymethyl)morpholin-4-yl]ethyl}-1H-indazole-6-carboxamide] |
| 0.861 | CCn1nc(C)cc1-c1nnc(-c2cc(C(N)=O)cc3c2cnn3CCN(C)CCOC)[nH]1 [ZZZ030, 4-[5-(1-ethyl-3-methyl-1H-pyrazol-5-yl)-4H-1,2,4-triazol-3-yl]-1-{2-[(2-methoxyethyl)(methyl)amino]ethyl}-1H-indazole-6-carboxamide] |
| 0.848 | CCn1nc(C)cc1-c1n[nH]c(-c2cc(C(N)=O)cc3c2cnn3CCN2CCO[C@@H](C3CC3)C2)n1 (racemic) [ZZZ117, 1-{2-[(2S)-2-cyclopropylmorpholin-4-yl]ethyl}-4-[3-(1-ethyl-3-methyl-1H-pyrazol-5-yl)-1H-1,2,4-triazol-5-yl]-1H-indazole-6-carboxamide] |
| 0.846 | CCn1nc(C)cc1-c1n[nH]c(-c2cc(C(N)=O)cc3c2cnn3CCN2CCO[C@@H](CO)C2)n1 [ZZZ115, 4-[3-(1-ethyl-3-methyl-1H-pyrazol-5-yl)-1H-1,2,4-triazol-5-yl]-1-{2-[(2R)-2-(hydroxymethyl)morpholin-4-yl]ethyl}-1H-indazole-6-carboxamide] |
| 0.842 | CCn1nc(C)cc1-c1n[nH]c(-c2cc(C(N)=O)cc3c2cnn3CCN2CC[C@@H](OC)C2)n1 [ZZZ111, 4-[3-(1-ethyl-3-methyl-1H-pyrazol-5-yl)-1H-1,2,4-triazol-5-yl]-1-{2-[(3R)-3-methoxypyrrolidin-1-yl]ethyl}-1H-indazole-6-carboxamide] |
| 0.785 | CCn1nc(C)cc1-c1nnc(-c2cc(C(N)=O)cc3c2cnn3CCCC2CCCNC2)[nH]1 (centres unmarked) [ZZZ079, 4-[5-(1-ethyl-3-methyl-1H-pyrazol-5-yl)-4H-1,2,4-triazol-3-yl]-1-[3-(piperidin-3-yl)propyl]-1H-indazole-6-carboxamide] |
| 0.623 | CCn1nc(C)cc1-c1n[nH]c(-c2cc(C(N)=O)cc3c2cnn3CCN2CC3CCC3C2)n1 (centres unmarked) [ZZZ110, 1-[2-(3-azabicyclo[3.2.0]heptan-3-yl)ethyl]-4-[3-(1-ethyl-3-methyl-1H-pyrazol-5-yl)-1H-1,2,4-triazol-5-yl]-1H-indazole-6-carboxamide] |
| 0.55 | CCn1nc(C)cc1-c1n[nH]c(-c2cc(C(N)=O)cc3c2cnn3CCN2CC3(CCCO3)C2)n1 [ZZZ094, 4-[3-(1-ethyl-3-methyl-1H-pyrazol-5-yl)-1H-1,2,4-triazol-5-yl]-1-[2-(5-oxa-2-azaspiro[3.4]octan-2-yl)ethyl]-1H-indazole-6-carboxamide] |
| 0.543 | CCn1ccc2c(-c3nc(-c4cc(C)nn4CCC(=O)O)n[nH]3)nc(C(N)=O)cc21 [ZZZ062, 3-{5-[5-(6-carbamoyl-1-ethyl-1H-pyrrolo[3,2-c]pyridin-4-yl)-1H-1,2,4-triazol-3-yl]-3-methyl-1H-pyrazol-1-yl}propanoic acid] |
| 0.447 | CCn1nc(C)cc1-c1nnc(-c2cc(C(N)=O)cc3c2cnn3[C@H](C)CCN2CCOCC2)[nH]1 (racemic) [ZZZ022, 4-[5-(1-ethyl-3-methyl-1H-pyrazol-5-yl)-4H-1,2,4-triazol-3-yl]-1-[(2R)-4-(morpholin-4-yl)butan-2-yl]-1H-indazole-6-carboxamide] |
| 0.191 | CCn1nc(C)cc1-c1nc(CN)c(-c2nc(C(N)=O)cc3c2cnn3C)o1 [ZZZ051, 4-[4-(aminomethyl)-2-(1-ethyl-3-methyl-1H-pyrazol-5-yl)-1,3-oxazol-5-yl]-1-methyl-1H-pyrazolo[4,3-c] pyridine-6-carboxamide] |
| 0.0633 | CCn1nc(C)c(O)c1-c1cnc(-c2cc(C(N)=O)cc3c2cnn3C)[nH]1 [ZZZ123, 4-[5-(1-ethyl-4-hydroxy-3-methyl-1H-pyrazol-5-yl)-1H-imidazol-2-yl]-1-methyl-1H-indazole-6-carboxamide] |
